Target: T1, STING (Homo sapiens, UniProt Q86WV6)
T1 construct: gene STING1; human STING WT protein 6His-tagged (recombinant)
Test: HTRF ligand-competitive binding assay with recombinant human STING; supported by CETSA in THP-1 cells

T1 sequence (Q86WV6 whole entry): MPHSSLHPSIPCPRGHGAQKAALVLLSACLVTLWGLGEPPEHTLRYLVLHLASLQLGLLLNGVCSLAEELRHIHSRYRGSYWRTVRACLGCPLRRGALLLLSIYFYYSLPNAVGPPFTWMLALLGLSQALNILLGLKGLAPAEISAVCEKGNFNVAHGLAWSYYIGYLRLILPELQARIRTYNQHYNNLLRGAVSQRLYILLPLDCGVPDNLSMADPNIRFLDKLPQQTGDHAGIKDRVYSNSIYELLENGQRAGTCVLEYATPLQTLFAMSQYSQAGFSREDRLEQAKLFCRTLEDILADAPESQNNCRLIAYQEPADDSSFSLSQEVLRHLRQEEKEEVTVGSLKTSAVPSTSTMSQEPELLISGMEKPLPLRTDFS

Nc1ccc(C(=O)N2CCc3cc(S(=O)(=O)N4C[C@H](c5ccccc5)NC4=O)ccc32)cc1 [DW2282]
STING competitive binding potency: > 10 µM
